Source: patent publication US20130196320A1, “METHOD FOR IMPROVING CLEAVAGE OF DNA BY ENDONUCLEASE SENSITIVE TO METHYLATION” (CELLECTIS, priority 2010, published 2013)
Like-named read-outs stand apart in the source and are kept apart here.

Columns and labels:
[1] = test system: CAPNS1 target in human CAPNS1 gene, 293H cells; assay: Meganuclease-induced mutagenesis assay at CAPNS1 recognition site; type: cell-based; conditions: Empty vector, 1 μM 5-aza-2′-deoxycytidine, CAPNS1 locus
Protocol: The human 293H cells (ATCC) were plated at a density of 1.2×10^6 cells per 10 cm dish in complete medium (DMEM supplemented with 2 mM L-glutamine, penicillin (100 IU/ml), streptomycin (100 μg/ml), amphotericin B (Fongizone: 0.25 μg/ml, Invitrogen-Life Science) and 10% FBS). The cells were pre-treated with 5-aza-deoxycytidine at 0.2 μM or 1 μM, 48 hours before transfection and the treatment was maintained 48 hours post-transfection. The medium was changed every day. The cells were transfected with 3 μg of DNA plasmids encoding meganuclease for RAG or 2.5 μg of each monomer CAPNS1 using Lipofectamine 2000 transfection reagent (Invitrogen) according to the manufacturer's protocol.
The efficiency of the meganuclease to promote mutagenesis at its endogenous recognition site was evaluated by sequencing the DNA surrounding the meganuclease cleavage site. Two days post-transfection, genomic DNA was extracted. 200 ng of genomic DNA were used to amplify (PCR amplification) the endogenous locus surrounding the meganuclease cleavage site. PCR amplification is performed to obtain a fragment flanked by specific adaptor sequences [adaptor A: 5′-[…]-NNNN-3′(SEQ ID NO: 46) and adaptor B, 5′-[…]-3′ (SEQ ID NO: 47)] provided by the company offering sequencing service (GATC Biotech AG, Germany) on the 454 sequencing system (454 Life Sciences). The primers sequences used for PCR amplification were:
RAG_R1: 5′-[…]-[…]-3′ (SEQ ID NO: 58) and CAPNS1_J3: 5′-[…]-NNNN-[…] (SEQ ID NO: 59) and CAPNS1_R3: 5′-[…]-[…]-3′ (SEQ ID NO: 60). Sequences specific to the locus are underlined. The sequence NNNN in primer F1 is a Barcode sequence (Tag) needed to link the sequence with a PCR product. The percentage of PCR fragments carrying insertion or deletion at the meganuclease cleavage site is related to the mutagenesis induced by the meganuclease through NHEJ pathway in a cell population, and therefore correlates with the meganuclease activity at its endogenous recognition site. 5000 to 10000 sequences were analyzed per conditions.

C1221 DNA target = assay: In vitro binding assay, fluorescence anisotropy of fluorescein-labeled C1221 duplex; conditions: read-out: [I-CreI]50, apparent dissociation constant
Protocol: FIG. 1: Spectrofluorimetric titration of fluorescein-labeled C1221 by I-CreI. 50 nM C1221, containing either 0 or 4 methylated CG on both strands, was incubated with increasing concentrations of I-CreI (from 0 to 1.5 μM) in binding buffer (10 mM Tris-HCl, 150 mM NaCl, 10 mM CaCl2, 10 mM DTT, pH8) at 25° C. After 30 minutes incubation, the fluorescence anisotropy of the mixture was recorded and then plotted as a function of I-CreI concentration.
Fluorescein labeled C1221 oligonucleotides were synthesized and HPLC-purified by Eurogentec. […] C1221 duplex and fluorescein final concentrations were assessed by spectrophotometry using their respective extinction coefficients ε260nm=62900 M^−1 cm^−1 and ε495nm=83000 M^−1 cm^−1. […]
To investigate the binding of I-CreI to C1221 duplex, 50 nM of C1221 duplex was incubated with increasing concentrations of I-CreI (from 0 to 1.5 μM) in binding buffer (10 mM Tris-HCl, 150 mM NaCl, 10 mM CaCl2, 10 mM DTT, pH8) at 25° C. After 30 minutes incubation, the fluorescence anisotropy of the mixture was recorded with a Pherastar Plus (BMG Labtech) operating in fluorescence polarization end point mode with excitation and emission wavelengths set to 495 and 520 nm respectively. […] [I-CreI]50 is defined as the concentration of 1-CreI needed to reach 50% of the final fluorescence anisotropy.

Molecule: Nc1ncn([C@H]2C[C@H](O)[C@@H](CO)O2)c(=O)n1 [5-aza-2′deoxycytidine, reference compound]
- mutagenesis, PCR fragments carrying a mutation [1]: 0.22%±0.25
- mutagenesis, PCR fragments carrying a mutation ([1]; listed as 5-aza-2′-deoxycytidine): 0.22% ± 0.25

B1: I-CreI: wild-type I-CreI meganuclease (… homing endonuclease), SEQ ID NO: 1, recombinant Cterm His-tag (protein, listed as Chlamydomonas reinhardtii)
chain: MNTKYNKEFLLYLAGFVDGDGSIIAQIKPNQSYKFKHQLSLTFQVTQKTQRRWFLDKLVDEIGVGYVRDRGSVSDYILSEIKPLHNFLTQLQPFLKLKQKQANLVLKIIEQLPSAKESPDKFLEVCTWVDQIAALNDSKTRKTTSETVRAVLDSLSEKKKSSP
modifications: C-terminal His-tag
- Kd (C1221 DNA target; fully methylated C1221 (4 methylated CG on both strands)): ~1000 nM
- Kd (C1221 DNA target; unmethylated C1221): 30 nM
